Reference: US20130101582A1, “Tiki1 and Tiki2, Wnt Inhibitors” (CHILDREN'S MEDICAL CENTER CORPORATION, priority 2010, published 2013)
Blank lines part the entries; values can stand above or below the molecule they belong to.

Tests used:
[1] = test system: Tiki1 expression; assay: Regulation of Tiki1 and Dkk1 expression by maternal Wnt signaling, RT-PCR; type: in vivo; settings: Xenopus embryos, RT-PCR at stage 10.5
Protocol: FIG. 3C is a gel showing that Tiki1 expression is regulated by maternal Wnt signaling. Whole embryos were used for LiCl or UV treatment. 20 or 40 pg of Xwnt8 mRNA was injected into ventral marginal zone (VMZ) at 4 to 8-cell stage and VMZ was dissected at stage 10.5 for RT-PCR. ΔNTCF mRNA (1 or 2 ng) was injected into dorsal marginal zone (DMZ) at 4 to 8-cell stage and DMZ was dissected at stage 10.5 for RT-PCR. Con: control.
SO formation requires maternal Wnt/β-catenin signaling (De Robertis, E. M. et al., Annu Rev Cell Dev Biol 20, 285-308 (2004); Harland, R. et al., Annu Rev Cell Dev Biol 13, 611-667 (1997)), which we found is necessary and sufficient for Tiki1 (and Dkk1) expression.

[2] = test system: Xenopus embryos; assay: Organizer gene expression in morpholino-injected whole Xenopus embryos (Table 1); type: in vivo; parameters: Whole embryos displaying change in gene expression: Reduced, Percentage (%): concentration or dose not given beside the values
Protocol: (§1) A functional cDNA expression screen was performed using arrayed Xenopus cDNAs to identify novel genes involved in AP patterning and Wnt signaling. Procedures for embryo manipulation, reverse transcription PCR and in situ hybridization were performed as previously described (Tamai, K. et al., Nature 407, 530-535 (2000)). The Arrayed Xenopus tropicalis full length cDNAs were used for the screening as performed previously (Kato, Y. et al., Nature 418, 641-646 (2002)). cDNA pools (in the CS107 vector) that contain 96 independent clones were transcribed in vitro using SP6 polymerase, and the resulting mRNA pools were injected into the dorsal side of the embryo at 4-cell stage at the dose of 10 ng RNA/embryo. Injected embryos were scored at stage 30-31 for enlarged or diminished anterior development. The positive pools were divided into smaller pools and the same process was repeated until a single cDNA was identified.
HA-Tiki1 mRNA injection rescued the effect of Tiki1MO on all head organizer genes examined (Table 1).

[3] = test system: Xenopus embryos; assay: Anterior neural marker expression in morpholino-injected whole embryos (Table 2); type: in vivo; settings: stage 16
Protocol: as §1
The specific expression in and the requirement for the formation of the head organizer imply Tiki1 function in anterior neural patterning. Tiki1MO was injected with fluorescein dextran (FLD, as a lineage tracer) into one dorsal-animal blastomeres at the 8-cell stage and analyzed expression of anterior neural markers at stage 16. Tiki1 MO suppressed the expression of, in the injected half of the embryo, forebrain marker BF1 and Otx2 (Table 2). […] HA-Tiki1 mRNA injection rescued the expression of BF1, Otx2, and En2 in Tiki1MO-injected embryos (Table 2).

[4] = test system: Xenopus embryos; assay: Tiki1MO anterior development/head formation phenotype; type: in vivo; settings: 20 ng injected into two dorsal blastomeres of 8-cell stage embryos
Protocol: (§2) 20 ng of Tiki1MO was injected into two dorsal blastomeres of 8-cell stage embryos.

[5] = test system: Xenopus Tiki1 protein synthesis; assay: Tiki1 protein synthesis in embryos with morpholino, Western blotting of animal caps; type: in vivo
Protocol: FIG. 4A is a gel showing that Xenopus Tiki1 protein synthesis is specifically targeted by an antisense morpholino oligonucleotide (MO). 500 pg mRNA for Tiki1-FLAG (targeted by MO) or HA-Tiki1 (resistant to MO) were injected with or without the Tiki1MO (5, 10, 20, 40 ng) into the animal pole at the 2-cell stage, and animal caps were dissected at stage 10 for Western blotting.
as §2

[6] = test system: Wnt3a signaling; assay: TOPFLASH reporter assay, Wnt3a co-transfected with Tiki1 or Tiki2 in HEK293T cells; type: cell-based, human
Text: Wnt3a and Tiki1 or Tiki2 were co-transfected. The TOPFLASH reading (normalized to Renilla) in Wnt3a alone was set as 100. DNA transfection amounts are shown per well in a standard 24-well plate format. Representative data from one of three independent experiments is shown.
The enlarged head phenotype by Tiki1 overexpression is indistinguishable from that by overexpression of Dkk1, a Wnt/LRP6 antagonist (MacDonald, B. T. et al., Dev Cell 17, 9-26 (2009); Glinka, A. et al., Nature 391, 357-362 (1998)). […] Thus Tiki1 likely acts at or upstream of Wnt receptors. […] Xenopus Tiki2, and human Tiki1 and Tiki2 also behaved as Wnt antagonists in Xenopus embryos, HEK293T cells (FIG. 2C) and mouse L cells (FIG. 5A).

[7] = target: Recombinant human WNT3A protein (Homo sapiens, UniProt P56704); assay: In vitro incubation of recombinant WNT3A with purified protein, Triton X-114 phase separation; type: biochemical; settings: purified protein incubated with recombinant human WNT3A
Protocol: FIG. 6G is a gel showing that recombinant WNT3A was incubated with Krm2N or Tiki2N purified from WCL (top) or from CM (bottom) and was subjected to Triton X-114 phase separation.
FIG. 6H is a gel showing that Recombinant WNT3A was incubated with Krm2N or Tiki2N or Tiki2NΔ. purified from WCL and was subjected to Triton X-114 phase separation.
Recombinant human Tiki2N, which is the ectodomain harboring the conserved Tiki domain (FIG. 6J), was purified, via tandem affinity procedures from HEK293T cell extracts or CM.

[8] = gene Chd, stage 10.5, injected in two dorsal blastomeres at 8-cell stage
[9] = gene Gsc st.13 (prechordal plate, neurula stage)

Sequence of Recombinant human WNT3A protein (P56704 19-352): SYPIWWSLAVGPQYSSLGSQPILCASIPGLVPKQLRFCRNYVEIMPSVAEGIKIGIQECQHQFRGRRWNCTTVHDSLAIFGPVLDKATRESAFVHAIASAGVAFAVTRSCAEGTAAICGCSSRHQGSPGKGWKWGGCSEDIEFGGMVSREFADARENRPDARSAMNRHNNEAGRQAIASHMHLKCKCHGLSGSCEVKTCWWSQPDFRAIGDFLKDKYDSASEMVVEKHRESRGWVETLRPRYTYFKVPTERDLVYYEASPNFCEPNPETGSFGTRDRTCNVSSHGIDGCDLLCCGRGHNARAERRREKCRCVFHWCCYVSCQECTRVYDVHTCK

Molecule: [Cl-].[Li+] [LiCl]
- Tiki1 and Dkk1 expression [1]: induced Tiki1 and Dkk1 expression

Molecule: Tiki1 MO: morpholino antisense oligonucleotide against Tiki1, 5′-CCAAATGATTACCATCATAGCTCAG-3′ (SEQ ID NO:13) (all phosphorodiamidate morpholino (PMO))
- Whole embryos displaying change in gene expression: Absent, Percentage (%) [2, 8]: 0%
- Whole embryos displaying change in gene expression: NC (No Change), Percentage (%) [2, 8]: 64%
- Whole embryos displaying change in gene expression: Reduced, Percentage (%) [2, 8]: 36%
- Whole embryos displaying change in gene expression: Absent, Percentage (%) ([2]; gene Dkk1, stage 10.5): 25%
- Whole embryos displaying change in gene expression: NC (No Change), Percentage (%) ([2]; gene Dkk1, stage 10.5): 35%
- Whole embryos displaying change in gene expression: Reduced, Percentage (%) ([2]; gene Dkk1, stage 10.5): 40%
- Whole embryos displaying change in gene expression: Absent, Percentage (%) [2, 9]: 35%
- Whole embryos displaying change in gene expression: NC (No Change), Percentage (%) [2, 9]: 33%
- Whole embryos displaying change in gene expression: Reduced, Percentage (%) [2, 9]: 32%
- Whole embryos displaying change in gene expression: Absent, Percentage (%) ([2]; gene Gsc, stage 10.5): 0%
- Whole embryos displaying change in gene expression: NC (No Change), Percentage (%) ([2]; gene Gsc, stage 10.5): 34%
- Whole embryos displaying change in gene expression: Reduced, Percentage (%) ([2]; gene Gsc, stage 10.5): 66%
- Whole embryos displaying change in gene expression: Absent, Percentage (%) ([2]; gene Lim1, stage 10.5): 28%
- Whole embryos displaying change in gene expression: NC (No Change), Percentage (%) ([2]; gene Lim1, stage 10.5): 18%
- Whole embryos displaying change in gene expression: Reduced, Percentage (%) ([2]; gene Lim1, stage 10.5): 54%
- Whole embryos displaying change in gene expression: Absent, Percentage (%) ([2]; gene Otx2, stage 10.5): 7%
- Whole embryos displaying change in gene expression: NC (No Change), Percentage (%) ([2]; gene Otx2, stage 10.5): 33%
- Whole embryos displaying change in gene expression: Reduced, Percentage (%) ([2]; gene Otx2, stage 10.5): 60%
- Whole embryos displaying change in gene expression: Absent, Percentage (%) ([2]; gene Xnot, stage 10.5): 0%
- Whole embryos displaying change in gene expression: NC (No Change), Percentage (%) ([2]; gene Xnot, stage 10.5): 87%
- Whole embryos displaying change in gene expression: Reduced, Percentage (%) ([2]; gene Xnot, stage 10.5): 13%
- Whole embryos displaying change in gene expression: Absent, Percentage (%) ([2]; gene Xnr3, stage 10.5): 0%
- Whole embryos displaying change in gene expression: NC (No Change), Percentage (%) ([2]; gene Xnr3, stage 10.5): 93%
- Whole embryos displaying change in gene expression: Reduced, Percentage (%) ([2]; gene Xnr3, stage 10.5): 7%
- Whole embryos displaying change in gene expression: NC (No Change), Percentage (%) ([3]; gene BF1): 14%
- Whole embryos displaying change in gene expression: Reduced, Percentage (%) ([3]; gene BF1): 23%
- Whole embryos displaying change in gene expression: increased, Percentage (%) ([3]; gene BF1): 0%
- Whole embryos displaying change in gene expression: Absent, Percentage (%) ([3]; gene BF1, injected into one dorsal-animal blastomere at 8-cell stage): 63%
- Whole embryos displaying change in gene expression: Absent, Percentage (%) ([3]; gene En-2): 40%
- Whole embryos displaying change in gene expression: NC (No Change), Percentage (%) ([3]; gene En-2): 35%
- Whole embryos displaying change in gene expression: Reduced, Percentage (%) ([3]; gene En-2): 25%
- Whole embryos displaying change in gene expression: increased, Percentage (%) ([3]; gene En-2): 0%
- Whole embryos displaying change in gene expression: Absent, Percentage (%) ([3]; gene HoxB9): 0%
- Whole embryos displaying change in gene expression: NC (No Change), Percentage (%) ([3]; gene HoxB9): 100%
- Whole embryos displaying change in gene expression: Reduced, Percentage (%) ([3]; gene HoxB9): 0%
- Whole embryos displaying change in gene expression: increased, Percentage (%) ([3]; gene HoxB9): 0%
- Whole embryos displaying change in gene expression: Absent, Percentage (%) ([3]; gene Otx2): 35%
- Whole embryos displaying change in gene expression: NC (No Change), Percentage (%) ([3]; gene Otx2): 35%
- Whole embryos displaying change in gene expression: Reduced, Percentage (%) ([3]; gene Otx2): 30%
- Whole embryos displaying change in gene expression: increased, Percentage (%) ([3]; gene Otx2): 0%
- Injected embryos that developed anterior defects [4]: roughly 50%
- Synthesis of HA-Tiki1 ([5]; HA-Tiki1 mRNA lacks the MO complementary sequence): unable to block the synthesis
- Synthesis of exogenously expressed Tiki1 (Tiki1-FLAG) ([5]; Tiki1-FLAG mRNA targeted by MO, animal caps stage 10): specifically blocked the synthesis

B1: Human Tiki1: Human Tiki1 (Q86V40/LOC129293) (SEQ ID NO:1), expressed by transfection (protein, listed as Homo sapiens)
chain: MSPWSWFLLQTLCLLPTGAASRRGAPGTANCELKPQQSELNSFLWTIKRDPPSYFFGTIHVPYTRVWDFIPDNSKEAFLQSSIVYFELDLTDPYTISALTSCQMLPQGENLQDVLPRDIYCRLKRHLEYVKLMMPLWMTPDQRGKGLYADYLFNAIAGNWERKRPVWVMLMVNSLTEVDIKSRGVPVLDLFLAQEAERLRKQTGAVEKVEEQCHPLNGLNFSQVIFALNQTLLQQESLRAGSLQIPYTTEDLIKHYNCGDLSSVILSHDSSQVPNFINATLPPQERITAQEIDSYLRRELIYKRNERIGKRVKALLEEFPDKGFFFAFGAGHFMGNNTVLDVLRREGYEVEHAPAGRPIHKGKSKKTSTRPTLSTIFAPKVPTLEVPAPEAVSSGHSTLPPLVSRPGSADTPSEAEQRFRKKRRRSQRRPRLRQFSDLWVRLEESDIVPQLQVPVLDRHISTELRLPRRGHSHHSQMVASSACLSLWTPVFWVLVLAFQTETPLL
- Wnt3a signaling, TOPFLASH reporter [6]: inhibit Wnt3a signaling

- Partitioning of WNT3A in Triton X-114 phase separation after in vitro incubation [7]: remained in the detergent phase
B2: KrmN: control recombinant protein, ectodomain of the transmembrane Kremen protein (protein, UniProt Q8NCW0 26-364, looked up)
extracellular domain: GSLHSPGLSECFQVNGADYRGHQNRTGPRGAGRPCLFWDQTQQHSYSSASDPHGRWGLGAHNFCRNPDGDVQPWCYVAETEEGIYWRYCDIPSCHMPGYLGCFVDSGAPPALSGPSGTSTKLTVQVCLRFCRMKGYQLAGVEAGYACFCGSESDLARGRLAPATDCDQICFGHPGQLCGGDGRLGVYEVSVGSCQGNWTAPQGVIYSPDFPDEYGPDRNCSWALGPPGAALELTFRLFELADPRDRLELRDAASGSLLRAFDGARPPPSGPLRLGTAALLLTFRSDARGHAQGFALTYRGLQDAAEDPEAPEGSAQTPAAPLDGANVSCSPRPGAPPAA
modifications: extracellular domain

- Partitioning of WNT3A in Triton X-114 phase separation after in vitro incubation [7]: remained in the detergent phase
B3: Tiki2NΔ: deletion mutant lacking a segment of the Tiki domain, inactive in modifying WNT3A (protein)
chain: RPQPPDGGQCRPPGSQRDLNSFLWTIRRDPPAYLFGTIHVPYTRVWDFIPDNSKAAFQASTRVYFELDLTDPYTISALASCQLLPHGENLQDVLPHELYWRLKRHLDYVKLMMPSWMTPAQRGKGLYADYLFNAIAGNWERKRPVWVMLMVNSLTERDVRFRGVPVLDLYLAQQAEKMKKTTGAVEQVEEQCHPLNNGLNFSQVLFALNQTLLQQESVRAGSLQASYTTEDLIKHYNCGDLSAVIFNHDTSQLPNFINTTLPPHEQVTAQEIDSYFRQELIYKRNERMGKRVMALLRENEDKICFFAFGAGHFLGNNTVIDILRQAGLEVDHTPAGQAIHSPAPQSPAPSPEGTSTSPAPVTPAAAVPEAPSVTPTAPPEDEDPALSPHLLLPDSLSQLEEFGRQRKWHKRQSTHQRPRQFNDLWVRIEDSTTASPPPLPLQPTHSSGTAKPPFQLSDQLQQQDPPG
modifications: left off: small tags and cut ends
